Laboratory results as given in patent US9109048B2, “Inhibition of tumor growth” (priority 1998, dated 2015).
Converted amounts (≈) assume the structure as drawn. Square brackets hold non-standard residues; d marks the D form. Ends that are not written are not given here. Peptide text beside a SMILES is read from it. * marks the point of attachment. Trp(2-Pmc) = Cc1c(C)c(S(=O)(=O)c2[nH]c3ccccc3c2C[C@H](N)C(=O)O)c(C)c2c1OC(C)(C)CC2; Bip = N[C@@H](Cc1ccc(-c2ccccc2)cc1)C(=O)O; Fmoc = O=C(OCC1c2ccccc2-c2ccccc21)*; Acm = CC(=O)NC*

Assays:
[1] = tested on: Meth A cells (murine sarcoma cell line); assay: Cytotoxicity on Meth A cells, MTT method
Protocol: Peptide solutions (0.1 ml) were added and the plates incubated at 37° C. for 30 minutes, 4 hours or 24 hours. The cytotoxicity was measured using the MTT method (Mosmann et al., J. Immunol. (1986) 136, 2348-2357).
Cells in the growth phase were harvested and washed in fresh medium and injected subcutaneously into the abdominal region of the mice.
The cytotoxic effect of the peptides on different murine and human tumor cells were measured using the MTT method (Mosmann et al., J. Immunol. (1986) 136, 2348-2357).
MTT is a soluble tetrazolium salt yielding a yellow solution when prepared in media or salt solutions lacking phenol red. Dissolved MTT is converted to an insoluble purple formazan by cleavage of the tetrazolium ring by dehydrogenase enzymes. This water insoluble formazan can be solubilized using isopropanol or other solvents and the dissolved material is measured spectrophotometrically. The absorbance was measured as a function of concentration of converted dye.
Cells were maintained in […] medium containing 10% FBS, 1% L-glutamine and 0.1% penicillin and streptomycin. Cells to be used in the assay were grown to confluency, trypsinated and split to single cell suspension, counted and centrifuged at 1500 rpm for 10 min. […][…] of cell suspension was transferred to each well on a 96-well microtiter plate. The cells were stimulated by adding […] of various concentrations of peptides diluted with assay medium to each well. The final concentrations of peptide were for example: 5, 10, 20, 40, 60, 80, 100, and 200 mg/ml. […] As a negative control only medium was added to the cells, and as a positive control (100% killing) 1% triton X-100 was added. Following an incubation period of 4 h., 20 ml MTT dissolved in PBS at a concentration of 5 mg/ml was added to each well, and the plate was incubated further for 2 h. 130 ml of the supernatant were then removed and […] acid alcohol (0.04-0.1 N HCl in isopropanol) added to each well to dissolve the dark blue crystals. The plate was placed on a shaker for 1 h and read spectrophotometrically at 590 nm in a microtiterplate reader using the Softmaxâ program.

[2] = tested on: MRSA (methicillin resistant S. aureus); format: cell-based; conditions: Table 15
Protocol: (§1) The bacterial strains used were: Escherichia coli ATCC 25922 and Staphylococcus aureus ATCC 25923. All strains were stored at −70° C. The bacteria were grown in 2% Bacto Peptone water (Difco 1807-17-4). All tests were performed with bacteria in mid-logarithmic growth phase. Determination of the minimum inhibitory concentration (MIC) of the peptides for bacterial strains were performed in 1% Bacto Peptone water. A standard microdilution technique with an inoculum of 2×10^6 CFU/ml was used. All assays were performed in triplets. Since the peptides are positively charged and therefore could adhere to the plastic wells, we controlled the actual concentration of the peptides in the solution by HPLC. There was no difference between the concentration of the peptides before or after adding the solution to the plastic wells.
Table 15 below gives the antibacterial activity and toxicity data for some preferred peptides of the invention. MRSA is methicillin resistant S. aureus and MRSE is methicilin resistant S. epidermidis.

[3] = tested on: Escherichia coli ATCC 25922; assay: MIC (minimum inhibitory concentration) test, microdilution; format: cell-based
Protocol: as §1

[4] = tested on: Staphylococcus aureus ATCC 25923; assay: as above; format: cell-based
Protocol: as §1

human red blood cells = assay: Hemolytic assay; format: cell-based; conditions: red cells of human
Protocol: The hemolytic activities of the peptides were determined using fresh human red blood cells. 8 ml blood was taken from a healthy person. 4 ml blood was transferred to a polycarbonate tube containing heparin to a final concentration of 10 U/ml, and the remaining 4 ml blood was transferred to a glass tube containing EDTA with final concentration of 15% EDTA. The erythrocytes were isolated from heparin-treated blood by centrifugation in 1500 rpm for 10 min and washed three times with phosphate-buffered saline (PBS) to remove plasma and buffy coat. The cell pellet was resuspended in PBS to make the final volume of 4 ml. The peptide was diluted to a concentration of 2 mg/ml and 0.1 mg/ml. The peptide was further diluted to the concentrations as stated in Table 1. For each tube PBS was added first, then RBCs and peptide solutions. The hematocrit in the blood treated with EDTA was determined after 30 min with Sysmex K-1000, and the resuspended RBCs were diluted into 10% hematocrit. RBCs in PBS (1%) with and without peptides (Table 18) were incubated in a shaker at 37° for 1 hour and then centrifuged at 4000 rpm for 5 min. The supernatant were carefully transferred to new polycarbonate tubes and the absorbance of the supernatant was measured at 540 nm. Baseline hemolysis was hemoglobin released in the presence of PBS, and 100% hemolysis was hemoglobin released in the presence of 0.1% Triton X-100.

[5] = Table 7, in µg/mL (unit assumed)

CSCC[C@H](NC(=O)[C@H](CCCNC(=N)N)NC(=O)[C@H](C)NC(=O)[C@H](CCC(N)=O)NC(=O)[C@H](Cc1c(S(=O)(=O)c2c(C)c(C)c3c(c2C)CCC(C)(C)O3)[nH]c2ccccc12)NC(=O)[C@H](CCCNC(=N)N)NC(=O)[C@H](CCCNC(=N)N)NC(=O)[C@H](CSCNC(C)=O)NC(=O)[C@H](CCCCN)NC(=O)[C@H](Cc1ccccc1)NC(=O)OCC1c2ccccc2-c2ccccc21)C(=O)N[C@@H](CCCCN)C(=O)N[C@@H](CCCCN)C(=O)N[C@@H](CC(C)C)C(=O)NCC(=O)N[C@@H](C)C(=O)O [LFB A8 FMOC PMC] (Fmoc-FKC(Acm)RR[Trp(2-Pmc)]QARMKKLGA-OH)
concentration effective in killing Meth A cells ([1]; 4 hours incubation): 50 µg/mL
concentration effective in killing Meth A cells ([1]; ½ hour incubation): higher than 100 μg/ml

CSCC[C@H](NC(=O)[C@H](CCCNC(=N)N)NC(=O)[C@H](C)NC(=O)[C@H](CCC(N)=O)NC(=O)[C@H](Cc1c[nH]c2ccccc12)NC(=O)[C@H](CCCNC(=N)N)NC(=O)[C@H](CCCNC(=N)N)NC(=O)[C@H](CSCNC(C)=O)NC(=O)[C@H](CCCCN)NC(=O)[C@H](Cc1ccccc1)NC(=O)OCC1c2ccccc2-c2ccccc21)C(=O)N[C@@H](CCCCN)C(=O)N[C@@H](CCCCN)C(=O)N[C@@H](CC(C)C)C(=O)NCC(=O)N[C@@H](C)C(=O)O [LFB A8 FMOC] (Fmoc-FKC(Acm)RRWQARMKKLGA-OH)
concentration effective in killing Meth A cells ([1]; 4 hours incubation): 250 µg/mL
concentration effective in killing Meth A cells ([1]; ½ hour incubation): 250 µg/mL

CSCC[C@H](NC(=O)[C@H](CCCNC(=N)N)NC(=O)[C@H](Cc1c[nH]c2ccccc12)NC(=O)[C@H](CCC(N)=O)NC(=O)[C@H](Cc1c[nH]c2ccccc12)NC(=O)[C@H](CCCNC(=N)N)NC(=O)[C@H](CCCNC(=N)N)NC(=O)[C@H](Cc1ccc(-c2ccccc2)cc1)NC(=O)[C@H](CCCCN)NC(=O)[C@@H](N)Cc1ccccc1)C(=O)N[C@@H](CCCCN)C(=O)N[C@@H](CCCCN)C(=O)N[C@@H](CC(C)C)C(=O)NCC(=O)N[C@@H](C)C(=O)O [LFB Bip3] (H-FK[Bip]RRWQWRMKKLGA-OH; N-terminus assumed)
MIC MRSA [2]: 2.5 µg/mL (≈ 1.18 µM)

CSCC[C@H](NC(=O)[C@H](CCCNC(=N)N)NC(=O)[C@H](Cc1ccc(-c2ccccc2)cc1)NC(=O)[C@H](CCC(N)=O)NC(=O)[C@H](Cc1ccc(-c2ccccc2)cc1)NC(=O)[C@H](CCCNC(=N)N)NC(=O)[C@H](CCCNC(=N)N)NC(=O)[C@H](CSCNC(C)=O)NC(=O)[C@H](CCCCN)NC(=O)[C@@H](N)Cc1ccccc1)C(=O)N[C@@H](CCCCN)C(=O)N[C@@H](CCCCN)C(=O)N[C@@H](CC(C)C)C(=O)NCC(=O)N[C@@H](C)C(=O)O [LFB Bip6,8]
MIC E. coli ([3]; Table 15): ≧5.8 μM
MIC S. aureus ([4]; Table 15): 3.0 µg/mL
MIC MRSA [2]: 2.5 µg/mL (≈ 1.17 µM)

GIGKFLHSAKKFGKAFVGWIMNS [Mag2 W19]
MIC E. coli ([3]; ATCC 25922): 7.5 µg/mL
MIC E. coli [3, 5]: 5-10
MIC S. aureus ([4]; ATCC 25923): 10 µg/mL
MIC S. aureus [4, 5]: 5-10
Meth A IC 50 ([1]; 4 h): 9 µg/mL

GIGKFWKKARKWGRWFWRILKKG [Tosmag W6,12,15,17]
MIC E. coli ([3]; ATCC 25922): 15 µg/mL
MIC S. aureus ([4]; ATCC 25923): 10 µg/mL
Meth A IC 50 ([1]; 4 h): 23 µg/mL

GIGKWLKKWRKFWRAWVRIWKKG [Tosmag W5,9,13,16,20]
MIC E. coli ([3]; ATCC 25922): >50 µg/mL
MIC S. aureus ([4]; ATCC 25923): >50 µg/mL
Meth A IC 50 ([1]; 4 h): 23 µg/mL

H-GIGKFLHSAKKFGKAFVGEIMNS-OH [Mag2, reference compound]
MIC E. coli [3, 5]: 20
MIC E. coli ([3]; Table 11): 20 µg/mL
MIC S. aureus [4, 5]: >200
MIC S. aureus ([4]; Table 11): >100 µg/mL
Meth A IC 50 ([1]; Table 11, peptide required to kill 50% of Meth A cells): 100 µg/mL

H-GIGKFLKKARKFGRAFVRILKKG-OH [Tosmag, reference compound]
MIC E. coli ([3]; ATCC 25922): 8 µg/mL
MIC S. aureus ([4]; ATCC 25923): 8 µg/mL
Meth A IC 50 ([1]; 4 h): 18 µg/mL

H-KMASKAGKIAGKIAKVALKAL-NH2 [MSI 24, reference compound]
MIC E. coli ([3]; ATCC 25922): 5 µg/mL
MIC S. aureus ([4]; ATCC 25923): 5 µg/mL
Meth A IC 50 ([1]; 4 h): >100 µg/mL

H-KVALKALKVALKALKVALKAL-NH2 [MSI 20, reference compound]
Meth A IC 50 ([1]; 4 h): >100 µg/mL

KMASKAGKIAWKIAKVALKAL-NH2 (C-terminus assumed) [MSI 24 W11]
MIC E. coli ([3]; ATCC 25922): 5 µg/mL
MIC S. aureus ([4]; ATCC 25923): 2.5 µg/mL
Meth A IC 50 ([1]; 4 h): 24 µg/mL

KMASKAWKIAGKIAKVALKAL-NH2 (C-terminus assumed) [MSI 24 W7]
MIC E. coli ([3]; ATCC 25922): 5 µg/mL
MIC S. aureus ([4]; ATCC 25923): 5 µg/mL
Meth A IC 50 ([1]; 4 h): 26 µg/mL

KVALKWLKVALKALKVALKAL-NH2 (C-terminus assumed) [MSI 20 W6]
Meth A IC 50 ([1]; 4 h): 22 µg/mL

Linear LFB (17-41) modified with Pmc: Linear LFB (17-41) modified with Pmc (FKCRRWQWRMKKLGAPSITCVRRAF; cysteine pairing not given here; also: modified with Pmc group, site not given here; UniProt P24627 36-60, looked up, fragment)
cytotoxic effect on Meth A cells compared with another peptide [1]: slightly more effective than Pmc modified LFB 17-31

PAWFKARRWAWRMLKKAA-OH [LFB 14-31 A2,6,10,17 K16L14]
MIC E. coli ([3]; ATCC 25922): 4.4 µM
MIC E. coli ([3]; Table 15): 10.0 µg/mL
MIC S. aureus ([4]; ATCC 25923): 4.4 µM
MIC S. aureus ([4]; Table 15): 10.0 µg/mL
EC50 (human red blood cells): > 440 µM
EC 50 (toxicity, hemolysis) (human red blood cells): >1000 µg/mL

PAWRKARRWAWRMKKLAA-OH [LFB 14-31 A2,6,10,17R4]
MIC E. coli ([3]; ATCC 25922): 13.1 µM
MIC E. coli ([3]; Table 8): 30 µg/mL
MIC E. coli ([3]; Table 15): 30.0 µg/mL
MIC S. aureus ([4]; ATCC 25923): 8.8 µM
MIC S. aureus ([4]; Table 8): 20 µg/mL
MIC S. aureus ([4]; Table 15): 20.0 µg/mL
EC 50 (toxicity, hemolysis) (human red blood cells): >1000 µg/mL

YRWARWWRR-NH2 [LFM 17-25 A4R2,8,9W3,7Y1NH2]
MIC E. coli ([3]; ATCC 25922): 7.0 µM
MIC E. coli ([3]; Table 12): 10 µg/mL
MIC E. coli ([3]; Table 15): 10.0 µg/mL
EC50 (human red blood cells): > 697 µM
EC 50 (toxicity, hemolysis) (human red blood cells): >1000 µg/mL
